{"source": "patent US20110071147A1", "about": "“4-AMINO-THIENO[3,2-C]PYRIDINE-7-CARBOXYLIC ACID AMIDES” (priority 2004, published 2011)", "key": {"[1]": {"target": "T1, KDR (Homo sapiens, UniProt P35968)", "T1 construct": "EEE tag", "T1 sequence (P35968 20-1356)": "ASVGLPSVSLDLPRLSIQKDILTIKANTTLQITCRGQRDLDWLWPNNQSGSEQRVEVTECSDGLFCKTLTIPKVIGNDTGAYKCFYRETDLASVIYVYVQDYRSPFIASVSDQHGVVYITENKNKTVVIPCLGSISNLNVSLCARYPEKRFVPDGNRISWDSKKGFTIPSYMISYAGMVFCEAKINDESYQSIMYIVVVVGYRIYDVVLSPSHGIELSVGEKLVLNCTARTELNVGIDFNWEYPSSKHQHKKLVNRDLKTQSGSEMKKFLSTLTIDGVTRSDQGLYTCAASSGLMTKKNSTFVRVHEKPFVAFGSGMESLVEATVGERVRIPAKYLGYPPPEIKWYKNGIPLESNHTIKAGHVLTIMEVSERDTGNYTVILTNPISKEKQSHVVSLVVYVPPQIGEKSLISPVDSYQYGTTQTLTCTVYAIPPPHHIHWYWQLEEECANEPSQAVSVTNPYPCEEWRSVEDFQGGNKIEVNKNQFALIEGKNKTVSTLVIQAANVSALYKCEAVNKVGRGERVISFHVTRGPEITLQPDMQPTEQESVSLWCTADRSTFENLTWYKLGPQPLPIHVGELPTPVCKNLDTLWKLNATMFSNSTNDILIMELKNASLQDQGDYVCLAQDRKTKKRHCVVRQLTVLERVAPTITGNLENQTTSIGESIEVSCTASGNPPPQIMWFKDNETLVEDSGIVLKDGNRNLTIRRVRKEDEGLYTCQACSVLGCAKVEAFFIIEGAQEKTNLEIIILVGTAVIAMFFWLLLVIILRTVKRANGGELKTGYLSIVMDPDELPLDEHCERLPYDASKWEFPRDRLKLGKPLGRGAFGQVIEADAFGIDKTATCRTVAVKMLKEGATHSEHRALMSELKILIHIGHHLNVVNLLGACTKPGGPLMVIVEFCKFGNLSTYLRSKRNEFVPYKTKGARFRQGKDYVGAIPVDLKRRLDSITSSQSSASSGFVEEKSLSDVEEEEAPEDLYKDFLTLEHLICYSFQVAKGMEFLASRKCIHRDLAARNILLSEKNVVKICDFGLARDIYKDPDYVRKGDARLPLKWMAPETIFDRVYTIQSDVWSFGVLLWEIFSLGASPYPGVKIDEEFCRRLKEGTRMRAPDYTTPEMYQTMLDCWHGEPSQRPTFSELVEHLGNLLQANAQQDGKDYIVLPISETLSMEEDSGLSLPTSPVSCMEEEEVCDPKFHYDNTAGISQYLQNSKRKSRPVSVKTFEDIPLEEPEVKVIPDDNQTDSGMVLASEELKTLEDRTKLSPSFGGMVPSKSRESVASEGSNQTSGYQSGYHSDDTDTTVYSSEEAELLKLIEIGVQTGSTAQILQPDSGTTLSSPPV", "assay": "KDR kinase HTRF assay", "type": "biochemical", "settings": "recombinant EEE-tagged KDR, 0.3 mM ATP", "description": "(§1) To determine inhibition of KDR and FGFR, kinase assays were conducted using an HTRF (Homogeneous Time Resolved Fluorescence) assay. This assay is described in A. J. Kolb et. al., Drug Discovery Today, 1998, 3(7), p 333.\nPrior to kinase reaction, recombinant EEE-tagged KDR was activated in the presence of activation buffer (50 mM HEPES, pH 7.4, 1 mM DTT, 10% glycerol, 150 mM NaCl, 0.1 mM EDTA, 26 mM MgCl2, and 4 mM ATP). The enzyme was incubated at 4° C. for 1 hour.\nKinase activity assays were performed in 96-well polypropylene plates (Falcon) with a total volume of 90 μL in each well. Each well contained 1 μM KDR substrate (Biotin-EEEEYFELVAKKKK), 1 nM activated KDR, and a test compound with one of 8 assay concentrations ranging from 100 μM to […] (1:5 serial dilution). The kinase activity assay was done in the presence of 100 mM HEPES, pH 7.4, 1 mM DTT, 0.1 mM Na2VO4, 25 mM MgCl2, 50 mM NaCl (from KDR stock solution), 1% DMSO (from compound), 0.3 mM ATP (at Km concentration) and 0.02% BSA. The reaction was incubated at 37° C. for 30 minutes. To stop the KDR reaction, 72 μL of reaction mixture was transferred into a STOP plate containing 18 μL of revelation buffer (20 mM EDTA, 50 mM HEPES, pH 7.4, 0.02% BSA, 10 nM Eu-labelled anti-pY antibody (final conc. 2 nM), and 100 nM streptavidin (final conc. 20 nM)). After mixing, 35 μL of solution was transferred into duplicate wells of a 384-well black plate (Costar), and read at 615/665 nm on a Wallac Victor 5 reader.\n(§2) Compound IC50 values were determined from duplicate sets of data, and calculated by using Excel and fitting data to equation Y=[(a−b)/{1+(X/c)^d]+b, where a and b are enzyme activity in the presence of no test inhibitor compound and an infinite amount of inhibitor test compound, respectively, c is the IC50 and d is the hill constant of the compound response. The IC50 value is the concentration of test compound that reduces by 50% the enzyme activity under the test conditions described."}, "[2]": {"system": "FGF-stimulated HUVEC", "assay": "FGF-stimulated HUVEC proliferation assay (BrdU)", "type": "cell-based", "settings": "Homo sapiens, FGF 5 ng per mL, BrdU ELISA, read-out: FGF-HUVEC (IC50, BrdU labeling)", "description": "(§3) The antiproliferative activity of test compounds of this invention in cell-based assays was evaluated by BrdU assay using the BrdU kit (Roche Biochemicals 1-647-229). Human umbilical vein endothelial cells (HUVEC, Clonetics CC-2519) were cultured in EGM-2 (Clonetics CC-3162) medium and seeded at 10000 cells per well in a volume of 200 μL of EGM-2 (Clonetics CC-3162) media in a 96-well flat bottom plates (Costar 3595) overnight. After 24 hours of growth at 37° C. with 5% CO2, the incubation media was removed slowly by aspiration and the content of each well was washed with 300 μL pre-warmed EBM-2 (Clonetics CC-3156) containing 50 μg per mL of gentamycin and 50 ng per mL of amphotercin-B (Clonetics CC-4083). […]\n(§4) After 24 hour exposure to the test compounds, the cells were labeled with BrdU (Roche Biochemicals 1-647-229), by adding 20 μL per well of BrdU labeling reagent that has been diluted (1:100) in serum starvation medium. […] The plates were read at 450 nm with reference wavelength of 650 nm. The percent inhibition for each test compound was calculated by subtracting the absorbency of the blank (no cells) wells from all wells, then subtracting the division of the average absorbency of each test duplicate by the average of the controls from 1. […] The IC50 is determined from the linear regression of a plot of the logarithm of the concentration versus percent inhibition."}, "[3]": {"system": "VEGF-stimulated HUVEC", "assay": "VEGF-stimulated HUVEC proliferation assay (BrdU)", "type": "cell-based", "settings": "Homo sapiens, VEGF 20 ng per mL, BrdU ELISA, read-out: VEGF-HUVEC (IC50, BrdU labeling)", "description": "as §3, §4"}, "[4]": {"target": "T2, FGFR", "T2 construct": "fused on or other part: GST tag", "assay": "FGFR kinase HTRF assay", "type": "biochemical", "settings": "GST-tagged FGFR, 10 μM ATP", "description": "as §1\nFGFR activity assays were carried out as described above for the KDR activity assay with the following differences. GST-tagged FGFR enzyme was activated at room temperature for 1 hour in the following activation buffer: 100 mM HEPES, pH 7.4, 50 mM NaCl, 20 mM MgCl2, and 4 mM ATP. The kinase activity assay was performed with 1 μM substrate (Biotin-EEEEYFELV), 1.5 nM activated FGFR, and test compound in the presence of 100 mM HEPES, 1 mM DTT, 0.4 mM MgCl2, 0.4 mM MnCl2, 50 mM NaCl, 1% DMSO, 10 μM ATP (Km=8.5 μM for FGFR), 0.1 mM Na2VO4, and 0.02% BSA, in a total volume of 90 μL. The rest of the assay was performed in the same manner as KDR assay.\nas §2"}}, "note": "Structures can show the parent of a compound that is named as a salt.", "data": [{"compound": "COc1ccc(OCc2csc3c(C(=O)NCCO)cnc(N)c23)c(Cl)c1", "note": "[Example 2, 4-Amino-3-(2-chloro-4-methoxy-phenoxymethyl)-thieno[3,2-c]pyridine-7-carboxylic acid (2-hydroxy-ethyl)-amide]", "values": [{"measurement": "IC50", "setting": "[1]", "result": 509, "unit": "nM"}]}, {"compound": "Nc1ncc(C(=O)NCCO)c2scc(COc3ccc(Br)cc3)c12", "note": "[Example 4a, 4-Amino-3-(4-bromo-phenoxymethyl)-thieno[3,2-c]pyridine-7-carboxylic acid (2-hydroxy-ethyl)-amide]", "values": [{"measurement": "IC50", "setting": "[2]", "result": 2760, "unit": "nM"}, {"measurement": "IC50", "setting": "[3]", "result": 264, "unit": "nM"}, {"measurement": "IC50", "setting": "[4]", "result": 72.4, "unit": "nM"}, {"measurement": "IC50", "setting": "[1]", "result": 20, "unit": "nM"}]}, {"compound": "Nc1ncc(C(=O)NCCN2CCOCC2)c2scc(COc3ccc(Br)cc3)c12", "note": "[Example 13b, 4-Amino-3-(4-bromo-phenoxymethyl)-thieno[3,2-c]pyridine-7-carboxylic acid (2-morpholin-4-yl-ethyl)-amide hydrochloride salt]", "values": [{"measurement": "IC50", "setting": "[2]", "result": 627, "unit": "nM"}, {"measurement": "IC50", "setting": "[3]", "result": 204, "unit": "nM"}, {"measurement": "IC50", "setting": "[4]", "result": 180, "unit": "nM"}, {"measurement": "IC50", "setting": "[1]", "result": 58.4, "unit": "nM"}]}]}
